Test results: the supplement of paper PMC10307832

Legend:
Assay in all cases: relative viability (nuclei count vs DMSO), 5 days (fraction); higher = more cells survive
Bexarotene + Navitoclax = compound: C=C(c1ccc(C(=O)O)cc1)c1cc2c(cc1C)C(C)(C)CCC2(C)C [Bexarotene] + CC1(C)CCC(c2ccc(Cl)cc2)=C(CN2CCN(c3ccc(C(=O)NS(=O)(=O)c4ccc(N[C@H](CCN5CCOCC5)CSc5ccccc5)c(S(=O)(=O)C(F)(F)F)c4)cc3)CC2)C1 [Navitoclax] (partner 0.5 µM)
How it was run: (§1)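 Values are medians from duplicate plates. Each reflects relative viability, defined as the nuclei count of treated wells over that of vehicle wells. Lung cancer cell lines in 1536-well plates were pin-tool dosed one day after seeding with one drug alone or with a fixed anchor-drug dose plus five library-drug doses (not always all listed) in √10 steps, then fixed, stained and imaged at 4× after 5 days.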

Bexarotene + Crizotinib = compound: C=C(c1ccc(C(=O)O)cc1)c1cc2c(cc1C)C(C)(C)CCC2(C)C [Bexarotene] + C[C@@H](Oc1cc(-c2cnn(C3CCNCC3)c2)cnc1N)c1c(Cl)ccc(F)c1Cl [Crizotinib] (partner 1 µM)
How it was run: as §1

Bexarotene + Dasatinib = compound: C=C(c1ccc(C(=O)O)cc1)c1cc2c(cc1C)C(C)(C)CCC2(C)C [Bexarotene] + Cc1nc(Nc2ncc(C(=O)Nc3c(C)cccc3Cl)s2)cc(N2CCN(CCO)CC2)n1 [Dasatinib] (partner 0.075 µM)
How it was run: as §1

Bexarotene + Vorinostat = compound: C=C(c1ccc(C(=O)O)cc1)c1cc2c(cc1C)C(C)(C)CCC2(C)C [Bexarotene] + O=C(CCCCCCC(=O)Nc1ccccc1)NO [Vorinostat] (partner 1 µM)
How it was run: as §1

Cell Line	relative viability (Bexarotene + Navitoclax; first compound 0.08 µM)	relative viability (Bexarotene + Navitoclax; first compound 0.253 µM)	relative viability (Bexarotene + Navitoclax; first compound 0.8 µM)	relative viability (Bexarotene + Navitoclax; first compound 2.53 µM)	relative viability (Bexarotene + Navitoclax; first compound 8 µM)	relative viability (Bexarotene + Crizotinib; first compound 0.08 µM)	relative viability (Bexarotene + Crizotinib; first compound 0.253 µM)	relative viability (Bexarotene + Crizotinib; first compound 0.8 µM)	relative viability (Bexarotene + Crizotinib; first compound 2.53 µM)	relative viability (Bexarotene + Crizotinib; first compound 8 µM)	relative viability (Bexarotene + Dasatinib; first compound 0.08 µM)	relative viability (Bexarotene + Dasatinib; first compound 0.253 µM)	relative viability (Bexarotene + Dasatinib; first compound 0.8 µM)	relative viability (Bexarotene + Dasatinib; first compound 2.53 µM)	relative viability (Bexarotene + Dasatinib; first compound 8 µM)	relative viability (Bexarotene + Vorinostat; first compound 0.08 µM)	relative viability (Bexarotene + Vorinostat; first compound 0.253 µM)	relative viability (Bexarotene + Vorinostat; first compound 0.8 µM)	relative viability (Bexarotene + Vorinostat; first compound 2.53 µM)	relative viability (Bexarotene + Vorinostat; first compound 8 µM)
NCI-H1437	1.08	1.15	1.06	1.07	0.953	0.92	0.959	0.918	0.922	0.909	0.445	0.6	0.567	0.411	0.434	0.814	1.01	0.886	0.872	0.84
NCI-H2170	0.578	0.606	0.615	0.55	0.559	1.1	1.11	1.15	1.02	1.05	0.615	0.466	0.522	0.476	0.584	0.746	0.913	0.753	0.699	0.687
NCI-H441	0.845	0.747	1.02	–	0.541	0.742	0.708	0.94	0.635	0.738	0.857	0.701	1	0.717	0.579	0.679	0.805	0.628	0.716	0.547
SK-LU-1	1.1	0.845	–	0.645	1.09	0.926	1.06	–	0.896	0.717	0.201	0.215	–	0.2	0.203	0.924	0.866	–	0.734	0.672
BEN	0.083	0.0587	0.063	0.0608	0.0559	0.786	0.737	0.768	0.708	0.662	0.295	0.3	0.326	0.271	0.278	0.685	0.583	0.531	0.531	0.547
LC-2-ad	0.576	0.485	0.432	0.368	0.284	0.443	0.46	0.44	0.504	0.412	0.696	0.602	0.575	0.497	0.625	0.82	0.845	0.744	0.703	0.665
COR-L23	0.98	1.12	0.847	0.916	0.879	0.747	0.633	0.605	0.498	0.558	0.498	0.557	0.503	0.606	0.203	0.54	0.539	0.411	0.426	0.337
NCI-H1650	1.37	1.4	1.34	1.21	1.3	0.842	0.927	0.788	1.04	0.777	0.383	0.38	0.408	0.333	0.296	0.524	0.548	0.579	0.676	0.736
